These results are taken from US20250134907A1, “FUSED DIAZEPINES AS AGONISTS OF THE INSULIN-LIKE 3 (INSL3) PEPTIDE RECEPTOR RXFP2 AND METHODS OF USE THEREOF” (The United States of America,as represented by the …, priority 2022, published 2025).

The target of the test is T1, RXFP2 (Homo sapiens, UniProt Q8WXD0).
T1 construct: expressed in transfected cells
The experiment in a line: HTRF cAMP assay in HEK293T cells stably expressing RXFP2 (HEK-RXFP2). Type of test: cell-based. The settings on record: for % EFF vs. 1 nM INSL3 (b): normalized to 1 nM INSL3 cAMP response; for % EFF vs. 100 nM INSL3 (c): normalized to 100 nM INSL3 cAMP response; for % EFF vs. 1 nM INSL3 (a): condition (a): 20,000 cells/well, maximum cAMP response normalized to 1 nM INSL3 response. How it is done: Compound efficacy and EC50 were determined by measuring cAMP induction in vitro. HEK293T cells stably expressing RXFP2 (HEK-RXFP2) produce cAMP when RXFP2 is activated, which can be measured in an antibody-based immunoassay utilizing a fluorescent readout (cAMP Gs HiRange Kit, PerkinElmer, Waltham, MA). HEK-RXFP2 cells were seeded in 96-well plates in serum-free DMEM and incubated overnight at 37° C., 5% CO2. Plates were then treated with a compound titration up to 25 μM or INSL3 control, in the presence of isobutylmethylxanthine phosphodiesterase inhibitor (IBMX) at 200 μM to amplify the cAMP signal, for 1 hour at 37° C., 5% CO2 before being processed as per kit instructions. Table 7 lists the efficacy and EC50 of compounds tested under different experimental conditions. […] In condition (a), 20,000 cells were seeded per well in the 96 well plate, and efficacy was determined by normalizing the maximum compound cAMP response to the 1 nM INSL3 cAMP response (% Efficacy 1 nM INSL3 (a)). In condition (b), 10,000 cells were seeded per well, and compound response was normalized to the 1 nM INSL3 cAMP response (% Efficacy 1 nM INSL3 (b)). In condition (c), 7,500 cells were seeded per well, compound response was normalized to the 100 nM INSL3 cAMP response, and IBMX was omitted (% Efficacy 100 nM INSL3 (c)). A range is given when compounds were tested multiple times. Where compounds were tested under multiple experimental conditions, the EC50 listed for the corresponding condition is marked (a) through (c) to correlate. When EC50 could not be calculated from the dose-response curve, EC50 is listed as not determined (ND).
A general note: TR-FRET usually uses a lanthanide donor and a delayed reading to cut background.

The mark [1] stands for this setting: condition (b): 10,000 cells/well, IBMX 200 μM.
[2] abbreviates: condition (c): 7,500 cells/well, IBMX omitted.

T1 sequence (Q8WXD0 whole entry): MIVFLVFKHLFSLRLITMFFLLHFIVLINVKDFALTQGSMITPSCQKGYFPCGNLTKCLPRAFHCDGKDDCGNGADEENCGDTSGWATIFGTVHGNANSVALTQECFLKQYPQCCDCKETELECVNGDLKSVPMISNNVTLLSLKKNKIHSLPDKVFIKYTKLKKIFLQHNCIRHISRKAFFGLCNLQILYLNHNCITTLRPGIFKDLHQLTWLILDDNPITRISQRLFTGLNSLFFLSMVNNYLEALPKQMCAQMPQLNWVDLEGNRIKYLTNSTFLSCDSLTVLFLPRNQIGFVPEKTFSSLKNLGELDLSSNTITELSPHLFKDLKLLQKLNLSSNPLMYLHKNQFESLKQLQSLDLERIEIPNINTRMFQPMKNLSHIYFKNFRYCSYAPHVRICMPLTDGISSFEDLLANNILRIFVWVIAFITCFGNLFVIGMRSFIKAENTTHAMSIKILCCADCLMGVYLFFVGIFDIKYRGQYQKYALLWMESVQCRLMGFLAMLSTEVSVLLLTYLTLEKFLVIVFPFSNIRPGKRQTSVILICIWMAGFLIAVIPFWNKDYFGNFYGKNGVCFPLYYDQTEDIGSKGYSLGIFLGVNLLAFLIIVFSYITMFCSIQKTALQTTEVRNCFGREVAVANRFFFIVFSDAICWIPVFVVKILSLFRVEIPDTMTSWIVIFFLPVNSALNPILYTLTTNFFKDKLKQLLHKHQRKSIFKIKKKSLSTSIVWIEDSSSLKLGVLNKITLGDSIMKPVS

For orientation: EC50 means the concentration that produces a half-maximal response. Lower therefore signals an effect from little substance. As for `Cc1ccc(C(F)(F)F)cc1-c1ccc2c(c1)C(=O)N1CCN(C(=O)COc3ccc(OC(F)(F)F)cc3Cl)C[C@H]1C(=O)N2` [Example 136, (S)-2-(2-(2-Chloro-4-(trifluoromethoxy)phenoxy)acetyl)-8-(2-methyl-5-(trifluoromethyl)phenyl)-1,3,4,12a-tetrahydrobenzo[e]pyrazino[1,2-a][1,4]diazepine-6,12 (2H, 11H)-dione], under setting [1], the EC50 lay within 67 to 89.4 nM and the “% EFF vs. 1 nM INSL3 (b)” value is recorded as 92.5-107.57%.
Take `O=C1Nc2ccc(-c3cccc(C(F)F)c3)cc2C(=O)N2CCN(C(=O)COc3ccc(OC(F)(F)F)cc3Cl)C[C@@H]12` [Example 179, (S)-2-(2-(2-chloro-4-(trifluoromethoxy)phenoxy)acetyl)-8-(3-(difluoromethyl)phenyl)-1,3,4,12a-tetrahydrobenzo[e]pyrazino[1,2-a][1,4]diazepine-6,12 (2H, 11H)-dione]: under setting [2], the “% EFF vs. 100 nM INSL3 (c)” value was found to be 28.25%.
As to `Cc1ccc(C(F)(F)F)cc1-c1ccc2c(c1)C(=O)N1CCN(C(=O)COc3ccc(C(F)(F)F)cc3Cl)C[C@H]1C(=O)N2` [Example 137, (S)-2-(2-(2-chloro-4-(trifluoromethyl)phenoxy)acetyl)-8-(2-methyl-5-(trifluoromethyl)phenyl)-1,3,4,12a-tetrahydrobenzo[e]pyrazino[1,2-a][1,4]diazepine-6,12 (2H, 11H)-dione], under setting [1], the “% EFF vs. 1 nM INSL3 (b)” value was 53.62%.
As for `COc1cc(OC(F)(F)F)ccc1OCC(=O)N1CCN2C(=O)c3cc(-c4cc(C(F)(F)F)cc(C(F)(F)F)c4)ccc3NC(=O)[C@@H]2C1` [Example 185, (S)-8-(3,5-bis(trifluoromethyl)phenyl)-2-(2-(2-methoxy-4-(trifluoromethoxy)phenoxy)acetyl)-1,3,4,12a-tetrahydrobenzo[e]pyrazino[1,2-a][1,4]diazepine-6,12 (2H, 11H)-dione], under setting [2], the midpoint of the response, the EC50, lay at 452 nM and the “% EFF vs. 100 nM INSL3 (c)” value worked out at 63.16%.
Turning to `Cc1cc(-c2ccc3c(c2)C(=O)N2CCN(C(=O)COc4ccc(OC(F)F)cc4C)C[C@H]2C(=O)N3)cc(C(F)(F)F)c1` [Example 168, (S)-2-(2-(4-(Difluoromethoxy)-2-methylphenoxy)acetyl)-8-(3-methyl-5-(trifluoromethyl)phenyl)-1,3,4,12a-tetrahydrobenzo[e]pyrazino[1,2-a][1,4]diazepine-6,12 (2H, 11H)-dione], the “% EFF vs. 1 nM INSL3 (b)” value under setting [1] stood at 131.20%.
For `O=C1Nc2ccc(-c3cc(C(F)(F)F)cc(C(F)(F)F)c3)cc2CN2CCN(C(=O)COc3ccc(OC(F)(F)F)cc3I)C[C@@H]12` [Example 254, (S)-8-(3,5-bis(trifluoromethyl)phenyl)-2-(2-(2-iodo-4-(trifluoromethoxy)phenoxy)acetyl)-1,3,4,6,11,12a-hexahydrobenzo[e]pyrazino[1,2-a][1,4]diazepin-12 (2H)-one], under setting [2], the EC50 was 8610 nM and the “% EFF vs. 100 nM INSL3 (c)” value came out at 49.35%.
The matching figures for `O=C1Nc2ccc(-c3cc(O)cc(C(F)(F)F)c3F)cc2C(=O)N2CCN(C(=O)COc3ccc(OC(F)(F)F)cc3Br)C[C@@H]12` [Example 259, (S)-2-(2-(2-bromo-4-(trifluoromethoxy)phenoxy)acetyl)-8-(2-fluoro-5-hydroxy-3-(trifluoromethyl)phenyl)-1,3,4,12a-tetrahydrobenzo[e]pyrazino[1,2-a][1,4]diazepine-6,12 (2H, 11H)-dione]: 62.1 nM and 67.97%.
Consider `O=C1Nc2cnc(-c3cc(C(F)(F)F)cc(C(F)(F)F)c3)cc2C(=O)N2CCN(C(=O)COc3ccc(OC(F)(F)F)cc3Br)C[C@@H]12` (single isomer, unassigned) [Example 197], for which the “% EFF vs. 100 nM INSL3 (c)” value under setting [2] came to 104.06%.
Regarding `Cc1cc(-c2ccc3c(c2)C(=O)N2CCN(C(=O)COc4ccc(OC(F)(F)F)cc4Cl)C[C@H]2CN3)cc(C(F)(F)F)c1.O=C(O)C(F)(F)F` [Example 151, (R)-2-(2-(2-chloro-4-(trifluoromethoxy)phenoxy)acetyl)-8-(3-methyl-5-(trifluoromethyl)phenyl)-1,3,4,11,12,12a-hexahydrobenzo[e]pyrazino[1,2-a][1,4]diazepin-6 (2H)-one-2,2,2-trifluoroacetate], the “% EFF vs. 1 nM INSL3 (b)” value under setting [1] turned out to be 0.85%.
For the compound `Cc1cc(-c2ccc3c(c2)C(=O)N2CCN(C(=O)COc4ccc(OC(F)(F)F)cc4Cl)CC2C(=O)N3)cc(C(F)(F)F)c1` (stereo not drawn) [Example 105, 2-(2-(2-chloro-4-(trifluoromethoxy)phenoxy)acetyl)-8-(3-methyl-5-(trifluoromethyl)phenyl)-1,3,4,12a-tetrahydrobenzo[e]pyrazino[1,2-a][1,4]diazepine-6,12 (2H, 11H)-dione], the “% EFF vs. 1 nM INSL3 (a)” value (IBMX 200 μM) turned out to be 143.62%. Under setting [1], the 50% effective concentration (EC50) is 84.2 to 219 nM and the “% EFF vs. 1 nM INSL3 (b)” value was 81.13-152.31%.
For `Cc1cc(OC(F)F)ccc1OCC(=O)N1CCN2C(=O)c3cc(-c4cc(O)cc(C(F)(F)F)c4)ccc3NC(=O)[C@@H]2C1` [Example 172], the “% EFF vs. 1 nM INSL3 (b)” value under setting [1] is on record as 70.66%.
Turning to `O=C1Nc2ccc(-c3cc(C(F)(F)F)cc(C(F)(F)F)c3)cc2C(=O)N2CCN(C(=O)COc3ccc(OC(F)(F)F)cc3Cl)C[C@@H]12` [Example 157, (S)-8-(3,5-Bis(trifluoromethyl)phenyl)-2-(2-(2-chloro-4-(trifluoromethoxy)phenoxy)acetyl)-1,3,4,12a-tetrahydrobenzo[e]pyrazino[1,2-a][1,4]diazepine-6,12 (2H, 11H)-dione], under setting [1], the concentration for a half-maximal effect (EC50) turned out to be 39.1 nM and the “% EFF vs. 1 nM INSL3 (b)” value came to 108.89%.
On to `O=C1Nc2ccc(-c3cccc(C(F)(F)F)c3)cc2C(=O)N2CCN(CCOc3ccccc3)CC12` (stereo not drawn) [Example 231, 2-(2-phenoxyethyl)-8-(3-(trifluoromethyl)phenyl)-1,3,4,12a-tetrahydrobenzo[e]pyrazino[1,2-a][1,4]diazepine-6,12 (2H, 11H)-dione], for which the “% EFF vs. 1 nM INSL3 (a)” value (IBMX 200 μM) was found to be 0.04%.
As for `O=C1Nc2ncc(-c3cc(C(F)(F)F)cc(C(F)(F)F)c3)cc2C(=O)N2CCN(C(=O)COc3ccc(OC(F)(F)F)cc3I)C[C@@H]12` (single isomer, unassigned) [Example 202], under setting [2], a half-maximal effect (EC50) was put at 40.7 nM and the “% EFF vs. 100 nM INSL3 (c)” value was determined as 102.23%.
Consider `Cc1cc(OC(F)(F)F)ccc1OCC(=O)N1CCN2C(=O)c3cc(-c4cc(F)cc(C(F)(F)F)c4)ccc3NC(=O)[C@@H]2C1` [Example 141, (S)-8-(3-fluoro-5-(trifluoromethyl)phenyl)-2-(2-(2-methyl-4-(trifluoromethoxy)phenoxy)acetyl)-1,3,4,12a-tetrahydrobenzo[e]pyrazino[1,2-a][1,4]diazepine-6,12 (2H, 11H)-dione], for which, under setting [1], the EC50 lay in the range of 36 to 54.5 nM and the “% EFF vs. 1 nM INSL3 (b)” value was 95.53-115.85%.
For `O=C1Nc2ccc(-c3cc(C(F)(F)F)ccc3F)cc2C(=O)N2CCN(C(=O)COc3ccc(C(F)(F)F)cc3Cl)C[C@@H]12` [Example 132, (S)-2-(2-(2-chloro-4-(trifluoromethyl)phenoxy)acetyl)-8-(2-fluoro-5-(trifluoromethyl)phenyl)-1,3,4,12a-tetrahydrobenzo[e]pyrazino[1,2-a][1,4]diazepine-6,12 (2H, 11H)-dione], the “% EFF vs. 1 nM INSL3 (b)” value under setting [1] came to 68.09%.
Consider `O=C1Nc2ccc(-c3cccc(C(F)(F)F)c3)cc2C(=O)N2CCN(C(=O)COc3ccccc3)C[C@H]12` [Example 115, (R)-2-(2-phenoxyacetyl)-8-(3-(trifluoromethyl)phenyl)-1,3,4,12a-tetrahydrobenzo[e]pyrazino[1,2-a][1,4]diazepine-6,12 (2H, 11H)-dione], for which the “% EFF vs. 1 nM INSL3 (a)” value (IBMX 200 μM) is given as 3.69%.
Take `Cc1cc(OC(F)(F)F)ccc1OCC(=O)N1CCN2C(=O)c3cc(-c4ccnc(C(F)(F)F)c4)ccc3NC(=O)C2C1` (stereo not drawn) [Example 40, 2-(2-(2-methyl-4-(trifluoromethoxy)phenoxy)acetyl)-8-(2-(trifluoromethyl)pyridin-4-yl)-1,3,4,12a-tetrahydrobenzo[e]pyrazino[1,2-a][1,4]diazepine-6,12 (2H, 11H)-dione]: under setting [1], the “% EFF vs. 1 nM INSL3 (b)” value is 47.69%.
Consider `O=C1Nc2ccc(-c3cccc(C(F)(F)F)c3)cc2C(=O)N2CCN(C(=O)COc3ccc(C(F)(F)F)cc3Cl)C[C@@H]12` [Example 255, (S)-2-(2-(2-chloro-4-(trifluoromethyl)phenoxy)acetyl)-8-(3-(trifluoromethyl)phenyl)-1,3,4,12a-tetrahydrobenzo[e]pyrazino[1,2-a][1,4]diazepine-6,12 (2H, 11H)-dione], for which, under setting [1], the concentration giving a half-maximal response (EC50) was determined as 9.7 nM and the “% EFF vs. 1 nM INSL3 (b)” value was 59.15%.
On to `O=C1Nc2ccc(-c3cccc(C(F)(F)F)c3)cc2C(=O)N2CCN(C(=O)COc3ccc(C(F)(F)F)c(F)c3F)C[C@@H]12` [Example 146, (S)-2-(2-(2,3-difluoro-4-(trifluoromethyl)phenoxy)acetyl)-8-(3-(trifluoromethyl)phenyl)-1,3,4,12a-tetrahydrobenzo[e]pyrazino[1,2-a][1,4]diazepine-6,12 (2H, 11H)-dione], for which the “% EFF vs. 1 nM INSL3 (b)” value under setting [1] was 47.43%.
